Test results published in PubChem BioAssay (NCI).
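Protocol summary: plate cells (96-well), add compound at 5 concentrations, incubate 48 h, interpolate endpoints linearly. Definition used: TGI = concentration required for complete inhibition of growth.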

How the values were obtained:
Experiment in all cases: inhibition of tumour cell growth, NCI panel, 48 h
CAKI-1 renal = system: CAKI-1 renal
HCT-116 colon = system: HCT-116 colon
RPMI-8226 leukemia = system: RPMI-8226 leukemia
SNB-19 CNS = system: SNB-19 CNS
A549 NSCLC = system: A549 NSCLC
CCRF-CEM leukemia = system: CCRF-CEM leukemia
DLD-1 colon = system: DLD-1 colon
OVCAR-3 ovarian = system: OVCAR-3 ovarian
SK-MEL-28 melanoma = system: SK-MEL-28 melanoma
HOP-62 NSCLC = system: HOP-62 NSCLC
HL-60(TB) leukemia = system: HL-60(TB) leukemia
UO-31 renal = system: UO-31 renal
ACHN renal = system: ACHN renal
SF-295 CNS = system: SF-295 CNS
HOP-18 NSCLC = system: HOP-18 NSCLC
IGROV1 ovarian = system: IGROV1 ovarian
NCI-H460 lung = system: NCI-H460 lung
LOX IMVI melanoma = system: LOX IMVI melanoma
UACC-257 melanoma = system: UACC-257 melanoma
A498 renal = system: A498 renal
KM12 colon = system: KM12 colon
U251 CNS = system: U251 CNS
HCT-15 colon = system: HCT-15 colon
M19-MEL melanoma = system: M19-MEL melanoma
TK-10 renal = system: TK-10 renal
COLO 205 colon = system: COLO 205 colon
NCI-H23 lung = system: NCI-H23 lung
SK-OV-3 ovarian = system: SK-OV-3 ovarian
RXF 393 renal = system: RXF 393 renal
MOLT-4 leukemia = system: MOLT-4 leukemia
HCC-2998 colon = system: HCC-2998 colon
NCI-H226 lung = system: NCI-H226 lung
LXFL 529 NSCLC = system: LXFL 529 NSCLC
DMS 114 small cell lung = system: DMS 114 small cell lung
SK-MEL-5 melanoma = system: SK-MEL-5 melanoma
K-562 leukemia = system: K-562 leukemia
SNB-78 CNS = system: SNB-78 CNS
KM20L2 colon = system: KM20L2 colon
UACC-62 melanoma = system: UACC-62 melanoma
OVCAR-5 ovarian = system: OVCAR-5 ovarian
SF-539 CNS = system: SF-539 CNS
HOP-92 NSCLC = system: HOP-92 NSCLC
OVCAR-8 ovarian = system: OVCAR-8 ovarian
EKVX NSCLC = system: EKVX NSCLC
SN12C renal = system: SN12C renal
HT29 colon = system: HT29 colon
OVCAR-4 ovarian = system: OVCAR-4 ovarian
786-0 renal = system: 786-0 renal
SNB-75 CNS = system: SNB-75 CNS
XF 498 CNS = system: XF 498 CNS
M14 melanoma = system: M14 melanoma
SF-268 CNS = system: SF-268 CNS
SW-620 colon = system: SW-620 colon
MALME-3M melanoma = system: MALME-3M melanoma
SR leukemia = system: SR leukemia
NCI-H522 lung = system: NCI-H522 lung
DMS 273 small cell lung = system: DMS 273 small cell lung
SK-MEL-2 melanoma = system: SK-MEL-2 melanoma

## Cc1cc(O)c2c3c1C(=O)Oc1c(CO)c(O)c(C(=O)O)c(c1O3)C=NN=Cc1c3c(c(CO)c(O)c1C(=O)O)OC(=O)c1c(C)cc(O)c(c1O3)C=NN=C2
CAKI-1 renal
  TGI: > 100 µM
HCT-116 colon
  TGI: > 100 µM
RPMI-8226 leukemia
  TGI: > 1 µM
SNB-19 CNS
  TGI: > 100 µM
A549 NSCLC
  TGI: > 100 µM
CCRF-CEM leukemia
  TGI: > 1 µM
DLD-1 colon
  TGI: > 100 µM
OVCAR-3 ovarian
  TGI: 88.1 µM
SK-MEL-28 melanoma
  TGI: > 100 µM
HOP-62 NSCLC
  TGI: > 100 µM
HL-60(TB) leukemia
  TGI: > 1 µM
UO-31 renal
  TGI: > 100 µM
ACHN renal
  TGI: > 100 µM
SF-295 CNS
  TGI: > 100 µM
HOP-18 NSCLC
  TGI: > 100 µM
IGROV1 ovarian
  TGI: > 100 µM
NCI-H460 lung
  TGI: > 100 µM
LOX IMVI melanoma
  TGI: > 100 µM
UACC-257 melanoma
  TGI: > 100 µM
A498 renal
  TGI: > 100 µM
KM12 colon
  TGI: > 100 µM
U251 CNS
  TGI: > 100 µM
HCT-15 colon
  TGI: > 100 µM
M19-MEL melanoma
  TGI: > 100 µM
TK-10 renal
  TGI: > 100 µM
COLO 205 colon
  TGI: > 100 µM
NCI-H23 lung
  TGI: > 100 µM
SK-OV-3 ovarian
  TGI: > 100 µM
RXF 393 renal
  TGI: > 100 µM
MOLT-4 leukemia
  TGI: > 1 µM
HCC-2998 colon
  TGI: > 100 µM
NCI-H226 lung
  TGI: > 100 µM
LXFL 529 NSCLC
  TGI: > 100 µM
DMS 114 small cell lung
  TGI: > 100 µM
SK-MEL-5 melanoma
  TGI: > 100 µM
K-562 leukemia
  TGI: > 1 µM
SNB-78 CNS
  TGI: > 100 µM
KM20L2 colon
  TGI: > 100 µM
UACC-62 melanoma
  TGI: > 100 µM
OVCAR-5 ovarian
  TGI: > 100 µM
SF-539 CNS
  TGI: > 100 µM
HOP-92 NSCLC
  TGI: > 100 µM
OVCAR-8 ovarian
  TGI: > 100 µM
EKVX NSCLC
  TGI: > 100 µM
SN12C renal
  TGI: > 100 µM
HT29 colon
  TGI: > 100 µM
OVCAR-4 ovarian
  TGI: > 100 µM
786-0 renal
  TGI: > 100 µM
SNB-75 CNS
  TGI: > 100 µM
XF 498 CNS
  TGI: > 100 µM
M14 melanoma
  TGI: > 100 µM
SF-268 CNS
  TGI: > 100 µM
SW-620 colon
  TGI: > 100 µM
MALME-3M melanoma
  TGI: > 100 µM
SR leukemia
  TGI: > 1 µM

## NC(=O)C1(c2ccccc2)Nc2ccccc2S1 (centres undefined)
CAKI-1 renal
  TGI: > 100 µM
HCT-116 colon
  TGI: > 100 µM
RPMI-8226 leukemia
  TGI: > 100 µM
SNB-19 CNS
  TGI: > 100 µM
A549 NSCLC
  TGI: > 100 µM
CCRF-CEM leukemia
  TGI: > 100 µM
DLD-1 colon
  TGI: > 100 µM
OVCAR-3 ovarian
  TGI: > 100 µM
SK-MEL-28 melanoma
  TGI: > 100 µM
HOP-62 NSCLC
  TGI: > 100 µM
HL-60(TB) leukemia
  TGI: > 100 µM
UO-31 renal
  TGI: > 100 µM
NCI-H522 lung
  TGI: > 100 µM
ACHN renal
  TGI: > 100 µM
HOP-18 NSCLC
  TGI: > 100 µM
NCI-H460 lung
  TGI: > 100 µM
LOX IMVI melanoma
  TGI: > 100 µM
KM12 colon
  TGI: > 100 µM
U251 CNS
  TGI: > 100 µM
HCT-15 colon
  TGI: > 100 µM
M19-MEL melanoma
  TGI: > 100 µM
TK-10 renal
  TGI: > 100 µM
COLO 205 colon
  TGI: > 100 µM
NCI-H23 lung
  TGI: > 100 µM
SK-OV-3 ovarian
  TGI: > 100 µM
RXF 393 renal
  TGI: > 100 µM
MOLT-4 leukemia
  TGI: > 100 µM
HCC-2998 colon
  TGI: > 100 µM
DMS 273 small cell lung
  TGI: > 100 µM
NCI-H226 lung
  TGI: > 100 µM
LXFL 529 NSCLC
  TGI: > 100 µM
DMS 114 small cell lung
  TGI: > 100 µM
SK-MEL-5 melanoma
  TGI: > 100 µM
K-562 leukemia
  TGI: > 100 µM
SK-MEL-2 melanoma
  TGI: > 100 µM
KM20L2 colon
  TGI: > 100 µM
UACC-62 melanoma
  TGI: > 100 µM
OVCAR-5 ovarian
  TGI: > 100 µM
SF-539 CNS
  TGI: > 100 µM
OVCAR-8 ovarian
  TGI: > 100 µM
EKVX NSCLC
  TGI: > 100 µM
SN12C renal
  TGI: > 100 µM
HT29 colon
  TGI: > 100 µM
XF 498 CNS
  TGI: > 100 µM
M14 melanoma
  TGI: > 100 µM
SF-268 CNS
  TGI: > 100 µM
SW-620 colon
  TGI: > 100 µM
MALME-3M melanoma
  TGI: > 100 µM
SR leukemia
  TGI: > 100 µM
